Test results: DBAASP
In brackets after ≈: the same amount, converted by molar mass.

What was measured:
Assay in all cases: ≥ marks a high value that may be exact or a test limit, other limits are often not marked, values filed in µg/mL are converted to µM
[1] = system: Staphylococcus aureus NCTC 8325-4
[2] = system: Escherichia coli NCIMB 11843
[3] = system: Pseudomonas fluorescens NCIMB 9046
[4] = system: Cronobacter sakazakii DSM 4485
[5] = system: Pseudomonas aeruginosa ATCC 27853
[6] = system: Cronobacter muytjensii ATCC 51329
[7] = system: Staphylococcus aureus RF122
[8] = system: Staphylococcus aureus SA113
[9] = system: Cronobacter sakazakii ATCC BAA-894
[10] = system: Salmonella enterica subsp. enterica serovar Typhimurium LT2
[11] = system: Staphylococcus aureus RN4220
[12] = system: Staphylococcus aureus Newman
[13] = system: Cronobacter sakazakii DPC 6440
[14] = system: Klebsiella pneumoniae NCIMB 13218

| Compound | MIC [1] [µM] | MIC [2] [µM] | MIC [3] [µM] | MIC [4] [µM] | MIC [5] [µM] | MIC [6] [µM] | MIC [7] [µM] | MIC [8] [µM] | MIC [9] [µM] | MIC [10] [µM] | MIC [11] [µM] | MIC [12] [µM] | MIC [13] [µM] | MIC [14] [µM] |
| --- | --- | --- | --- | --- | --- | --- | --- | --- | --- | --- | --- | --- | --- | --- |
| CC(C)C[C@H](NC(=O)[C@H](CC(N)=O)NC(=O)[C@H](CCC(=O)O)NC(=O)[C@H](CC(N)=O)NC(=O)[C@H](CC(C)C)NC(=O)[C@@H](N)C(C)C)C(=O)N[C@@H](CCCN=C(N)N)C(=O)N[C@@H](CCCN=C(N)N)C(=O)O [VLNENLRR] | ≥ 625 | ≥ 2500 | ≥ 1250 | ≥ 1250 | 32 (≈ 32.4 µg/mL) | ≥ 625 | ≥ 1250 | ≥ 1250 | ≥ 1250 | ≥ 2500 | ≥ 1250 | ≥ 1250 | ≥ 1250 | ≥ 1250 |
| CC[C@H](C)[C@H](N)C(=O)N[C@@H](Cc1cnc[nH]1)C(=O)N[C@@H](Cc1cnc[nH]1)C(=O)N[C@@H](CCC(N)=O)C(=O)NCC(=O)N[C@@H](CC(C)C)C(=O)N1CCC[C@H]1C(=O)N[C@@H](CCC(N)=O)C(=O)N[C@@H](CCC(=O)O)C(=O)O [IHHQGLPQE] | ≥ 2500 | ≥ 2500 | ≥ 2500 | ≥ 2500 |  | ≥ 2500 | ≥ 2500 | ≥ 2500 | ≥ 1250 | ≥ 2500 | ≥ 2500 | ≥ 2500 | ≥ 1250 | ≥ 2500 |
| CC(C)C[C@H](NC(=O)[C@H](C)NC(=O)[C@H](CC(N)=O)NC(=O)[C@H](CCC(=O)O)NC(=O)[C@H](CC(N)=O)NC(=O)[C@H](CC(C)C)NC(=O)[C@@H](N)C(C)C)C(=O)N[C@@H](CCCN=C(N)N)C(=O)O [VLNENALR] | ≥ 1250 | ≥ 1250 | ≥ 1250 | ≥ 2500 |  | ≥ 2500 | ≥ 1250 | ≥ 625 | ≥ 2500 | ≥ 2500 | ≥ 1250 | ≥ 625 | ≥ 625 | ≥ 1250 |
| CC(C)C[C@H](NC(=O)[C@H](CC(C)C)NC(=O)[C@H](CC(N)=O)NC(=O)[C@H](CCC(=O)O)NC(=O)[C@H](CC(N)=O)NC(=O)[C@H](CC(C)C)NC(=O)[C@@H](N)C(C)C)C(=O)O [VLNENLL] | ≥ 1250 | ≥ 1250 | ≥ 1250 | ≥ 2500 |  | ≥ 2500 | ≥ 1250 | ≥ 1250 | ≥ 2500 | ≥ 1250 | ≥ 1250 | ≥ 1250 | ≥ 312 | ≥ 1250 |
| CC[C@H](C)[C@H](N)C(=O)N[C@@H](CCCN=C(N)N)C(=O)N[C@@H](CCCN=C(N)N)C(=O)N[C@@H](CCC(N)=O)C(=O)NCC(=O)N[C@@H](CC(C)C)C(=O)N1CCC[C@H]1C(=O)N[C@@H](CCC(=O)O)C(=O)O [IRRQGLPE] | ≥ 312 | ≥ 2500 | ≥ 1250 | ≥ 1250 |  | ≥ 1250 | ≥ 1250 | ≥ 625 | ≥ 1250 | ≥ 2500 | ≥ 1250 | ≥ 1250 | ≥ 1250 | ≥ 2500 |
| CC(C)C[C@H](NC(=O)CNC(=O)[C@H](CCC(N)=O)NC(=O)[C@H](Cc1cnc[nH]1)NC(=O)[C@@H](N)CCCCN)C(=O)N1CCC[C@H]1C(=O)N[C@@H](CCC(N)=O)C(=O)N[C@@H](CCC(=O)O)C(=O)O [KHQGLPQE] | ≥ 1250 | ≥ 1250 | ≥ 1250 | ≥ 2500 |  | ≥ 2500 | ≥ 1250 | ≥ 625 | ≥ 2500 | ≥ 1250 | ≥ 1250 | ≥ 1250 | ≥ 1250 | ≥ 1250 |
